Source: PMC7031403, “A molecular switch regulating transcriptional repression and activation of PPARγ” (Nature Communications, 2020)

Columns and labels:
Assay in all cases: Fluorescence polarization peptide interaction assay, NCoR ID2 peptide affinity, apo- or T0070907-bound wild type or mutant PPARγ LBD
Assay type in all cases: binding
[1] = target: T1, PPARγ LBD (wild type or mutant) (Homo sapiens, UniProt P37231, E499A); details: apo (DMSO) E471A PPARγ LBD; one site-total binding fit; read-out: NCoR ID2 peptide affinity, mean of fit (log scale) (converted)
T1 construct: made in house; host or cells: Escherichia coli BL21(DE3)
Procedure: (§1) Plates were incubated at 25 °C for 1 h, and fluorescence polarization was measured on a BioTek Synergy Neo multimode plate reader at […] wavelengths. Data were plotted using GraphPad Prism as fluorescence polarization signal in millipolarization units vs. protein concentration and fit to a one site—total binding equation.

[2] = target: T2, PPARγ LBD (wild type or mutant) (Homo sapiens, UniProt P37231, R316A); details: apo (DMSO) R288A PPARγ LBD; one site-total binding fit; read-out: NCoR ID2 peptide affinity, mean of fit (log scale) (converted)
T2 construct: made in house; host or cells: Escherichia coli BL21(DE3)
Procedure: as §1

[3] = target: T3, PPARγ LBD (wild type or mutant) (Homo sapiens, UniProt P37231, Y505A); details: apo (DMSO) Y477A PPARγ LBD; one site-total binding fit; read-out: NCoR ID2 peptide affinity, mean of fit (log scale) (converted)
T3 construct: made in house; host or cells: Escherichia coli BL21(DE3)
Procedure: as §1

[4] = target: T4, PPARγ LBD (wild type or mutant) (Homo sapiens, UniProt P37231, Q342A); details: apo (DMSO) Q314A PPARγ LBD; one site-total binding fit; read-out: NCoR ID2 peptide affinity, mean of fit (log scale) (converted)
T4 construct: made in house; host or cells: Escherichia coli BL21(DE3)
Procedure: as §1

[5] = target: T5, PPARγ LBD (wild type or mutant) (Homo sapiens, UniProt P37231, Q322A); details: apo (DMSO) Q294A PPARγ LBD; one site-total binding fit; read-out: NCoR ID2 peptide affinity, mean of fit (log scale) (converted)
T5 construct: made in house; host or cells: Escherichia coli BL21(DE3)
Procedure: as §1

[6] = target: T6, PPARγ LBD (wild type or mutant) (Homo sapiens, UniProt P37231, H351A); details: apo (DMSO) H323A PPARγ LBD; one site-total binding fit; read-out: NCoR ID2 peptide affinity, mean of fit (log scale) (converted)
T6 construct: made in house; host or cells: Escherichia coli BL21(DE3)
Procedure: as §1

[7] = target: T7, PPARγ LBD (wild type or mutant) (Homo sapiens, UniProt P37231, D503A); details: apo (DMSO) D475A PPARγ LBD; one site-total binding fit; read-out: NCoR ID2 peptide affinity, mean of fit (log scale) (converted)
T7 construct: made in house; host or cells: Escherichia coli BL21(DE3)
Procedure: as §1

[8] = target: T8, PPARγ LBD (wild type or mutant) (Homo sapiens, UniProt P37231, K395A); details: apo (DMSO) K367A PPARγ LBD; one site-total binding fit; read-out: NCoR ID2 peptide affinity, mean of fit (log scale) (converted)
T8 construct: made in house; host or cells: Escherichia coli BL21(DE3)
Procedure: as §1

[9] = target: T9, PPARγ LBD (wild type or mutant) (Homo sapiens, UniProt P37231, E499R); details: apo (DMSO) E471R PPARγ LBD; one site-total binding fit; read-out: NCoR ID2 peptide affinity, mean of fit (log scale) (converted)
T9 construct: made in house; host or cells: Escherichia coli BL21(DE3)
Procedure: as §1

[10] = target: T10, PPARγ LBD (wild type or mutant) (Homo sapiens, UniProt P37231, N340A); details: apo (DMSO) N312A PPARγ LBD; one site-total binding fit; read-out: NCoR ID2 peptide affinity, mean of fit (log scale) (converted)
T10 construct: made in house; host or cells: Escherichia coli BL21(DE3)
Procedure: as §1

[11] = target: T11, PPARγ LBD (wild type or mutant) (Homo sapiens, UniProt P37231, D503R); details: apo (DMSO) D475R PPARγ LBD; one site-total binding fit; read-out: NCoR ID2 peptide affinity, mean of fit (log scale) (converted)
T11 construct: made in house; host or cells: Escherichia coli BL21(DE3)
Procedure: as §1

[12] = target: T12, PPARγ LBD (wild type or mutant) (Homo sapiens, UniProt P37231, Q314A); details: apo (DMSO) Q286A PPARγ LBD; one site-total binding fit; read-out: NCoR ID2 peptide affinity, mean of fit (log scale) (converted)
T12 construct: made in house; host or cells: Escherichia coli BL21(DE3)
Procedure: as §1

[13] = target: T13, PPARγ LBD (wild type or mutant) (Homo sapiens, UniProt P37231, Y355A); details: apo (DMSO) Y327A PPARγ LBD; one site-total binding fit; read-out: NCoR ID2 peptide affinity, mean of fit (log scale) (converted)
T13 construct: made in house; host or cells: Escherichia coli BL21(DE3)
Procedure: as §1

[14] = target: T14, PPARγ LBD (wild type or mutant) (Homo sapiens, UniProt P37231, H477A); details: apo (DMSO) H449A PPARγ LBD; one site-total binding fit; read-out: NCoR ID2 peptide affinity, mean of fit (log scale) (converted)
T14 construct: made in house; host or cells: Escherichia coli BL21(DE3)
Procedure: as §1

[15] = target: T15, PPARγ LBD (wild type or mutant) (Homo sapiens, UniProt P37231, M392A); details: apo (DMSO) M364A PPARγ LBD; one site-total binding fit; read-out: NCoR ID2 peptide affinity, mean of fit (log scale) (converted)
T15 construct: made in house; host or cells: Escherichia coli BL21(DE3)
Procedure: as §1

[16] = target: T16, PPARγ LBD (wild type or mutant) (Homo sapiens, UniProt P37231, K347A); details: apo (DMSO) K319A PPARγ LBD; one site-total binding fit; read-out: NCoR ID2 peptide affinity, mean of fit (log scale) (converted)
T16 construct: made in house; host or cells: Escherichia coli BL21(DE3)
Procedure: as §1

[17] = target: T17, PPARγ LBD (wild type or mutant) (Homo sapiens, UniProt P37231, R308A); details: apo (DMSO) R280A PPARγ LBD; one site-total binding fit; read-out: NCoR ID2 peptide affinity, mean of fit (log scale) (converted)
T17 construct: made in house; host or cells: Escherichia coli BL21(DE3)
Procedure: as §1

[18] = target: T18, PPARγ LBD (wild type or mutant) (Homo sapiens, UniProt P37231, K329A); details: apo (DMSO) K301A PPARγ LBD; one site-total binding fit; read-out: NCoR ID2 peptide affinity, mean of fit (log scale) (converted)
T18 construct: made in house; host or cells: Escherichia coli BL21(DE3)
Procedure: as §1

T5 sequence (P37231 231-505 Q322A): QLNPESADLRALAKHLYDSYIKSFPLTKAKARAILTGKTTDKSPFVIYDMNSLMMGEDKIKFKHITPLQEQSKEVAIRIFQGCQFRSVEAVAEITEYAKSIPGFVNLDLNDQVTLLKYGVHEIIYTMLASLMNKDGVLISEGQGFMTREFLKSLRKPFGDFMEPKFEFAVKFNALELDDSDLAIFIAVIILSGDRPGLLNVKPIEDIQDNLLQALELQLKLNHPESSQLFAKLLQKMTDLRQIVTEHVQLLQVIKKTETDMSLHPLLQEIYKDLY
T5 sequence (O75376 2256-2278 partner): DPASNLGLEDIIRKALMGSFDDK
T17 sequence (P37231 231-505 R308A): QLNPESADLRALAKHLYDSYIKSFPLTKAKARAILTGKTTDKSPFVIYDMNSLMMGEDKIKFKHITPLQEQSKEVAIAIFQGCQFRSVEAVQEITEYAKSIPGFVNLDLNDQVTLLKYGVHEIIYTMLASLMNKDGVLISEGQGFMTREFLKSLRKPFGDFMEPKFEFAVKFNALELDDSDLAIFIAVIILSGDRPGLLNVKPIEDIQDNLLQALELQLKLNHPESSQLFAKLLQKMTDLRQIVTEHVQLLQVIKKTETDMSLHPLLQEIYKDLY
T1 sequence (P37231 231-505 E499A): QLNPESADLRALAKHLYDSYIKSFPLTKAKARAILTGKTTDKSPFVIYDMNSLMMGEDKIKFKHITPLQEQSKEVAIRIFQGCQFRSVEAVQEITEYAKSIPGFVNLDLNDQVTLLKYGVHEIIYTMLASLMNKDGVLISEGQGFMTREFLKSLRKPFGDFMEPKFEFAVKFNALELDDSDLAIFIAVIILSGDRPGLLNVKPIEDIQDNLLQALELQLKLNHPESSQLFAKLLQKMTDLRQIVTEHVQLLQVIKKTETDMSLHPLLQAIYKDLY
T9 sequence (P37231 231-505 E499R): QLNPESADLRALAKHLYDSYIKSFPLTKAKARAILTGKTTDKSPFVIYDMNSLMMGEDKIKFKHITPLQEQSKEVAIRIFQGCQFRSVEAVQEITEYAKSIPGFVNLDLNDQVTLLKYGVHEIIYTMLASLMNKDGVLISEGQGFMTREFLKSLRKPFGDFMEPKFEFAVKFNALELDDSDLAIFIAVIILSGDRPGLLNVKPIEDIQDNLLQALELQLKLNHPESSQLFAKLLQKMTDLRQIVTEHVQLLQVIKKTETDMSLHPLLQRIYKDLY
T16 sequence (P37231 231-505 K347A): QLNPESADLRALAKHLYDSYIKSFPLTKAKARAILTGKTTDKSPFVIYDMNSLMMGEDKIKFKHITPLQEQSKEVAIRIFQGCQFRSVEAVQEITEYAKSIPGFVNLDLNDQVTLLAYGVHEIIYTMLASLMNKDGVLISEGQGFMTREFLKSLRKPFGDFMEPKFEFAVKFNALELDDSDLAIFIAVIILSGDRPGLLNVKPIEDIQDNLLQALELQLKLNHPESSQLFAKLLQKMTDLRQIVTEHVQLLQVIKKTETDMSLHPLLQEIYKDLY
T12 sequence (P37231 231-505 Q314A): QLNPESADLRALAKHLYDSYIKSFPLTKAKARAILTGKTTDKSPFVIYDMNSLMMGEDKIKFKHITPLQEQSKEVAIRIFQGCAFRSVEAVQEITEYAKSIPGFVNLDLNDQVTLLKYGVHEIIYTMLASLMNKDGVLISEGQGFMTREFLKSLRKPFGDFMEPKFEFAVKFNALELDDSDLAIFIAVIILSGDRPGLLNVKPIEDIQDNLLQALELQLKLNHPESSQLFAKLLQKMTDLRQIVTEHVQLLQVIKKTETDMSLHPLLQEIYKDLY
T4 sequence (P37231 231-505 Q342A): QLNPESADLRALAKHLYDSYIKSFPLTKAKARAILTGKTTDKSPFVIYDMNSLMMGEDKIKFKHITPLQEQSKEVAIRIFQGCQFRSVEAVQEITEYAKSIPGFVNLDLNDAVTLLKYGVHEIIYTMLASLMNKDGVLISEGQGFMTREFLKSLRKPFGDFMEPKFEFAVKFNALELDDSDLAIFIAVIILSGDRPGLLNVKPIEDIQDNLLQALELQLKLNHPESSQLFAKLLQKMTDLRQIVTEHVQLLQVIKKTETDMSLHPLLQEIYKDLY
T13 sequence (P37231 231-505 Y355A): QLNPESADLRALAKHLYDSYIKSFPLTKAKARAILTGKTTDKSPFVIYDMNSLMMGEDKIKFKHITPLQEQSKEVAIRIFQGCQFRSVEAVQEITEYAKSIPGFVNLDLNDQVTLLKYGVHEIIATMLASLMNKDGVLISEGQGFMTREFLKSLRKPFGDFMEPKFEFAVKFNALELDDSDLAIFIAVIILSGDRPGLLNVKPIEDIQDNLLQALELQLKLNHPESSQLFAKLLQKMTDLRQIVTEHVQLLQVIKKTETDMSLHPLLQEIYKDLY
T7 sequence (P37231 231-505 D503A): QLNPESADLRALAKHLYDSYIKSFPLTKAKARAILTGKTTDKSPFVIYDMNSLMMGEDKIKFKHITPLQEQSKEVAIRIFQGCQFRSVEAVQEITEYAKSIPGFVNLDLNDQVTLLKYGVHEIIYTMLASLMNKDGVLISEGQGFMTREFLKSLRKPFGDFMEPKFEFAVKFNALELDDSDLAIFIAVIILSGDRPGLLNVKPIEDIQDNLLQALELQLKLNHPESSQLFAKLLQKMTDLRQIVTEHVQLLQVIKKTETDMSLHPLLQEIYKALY
T18 sequence (P37231 231-505 K329A): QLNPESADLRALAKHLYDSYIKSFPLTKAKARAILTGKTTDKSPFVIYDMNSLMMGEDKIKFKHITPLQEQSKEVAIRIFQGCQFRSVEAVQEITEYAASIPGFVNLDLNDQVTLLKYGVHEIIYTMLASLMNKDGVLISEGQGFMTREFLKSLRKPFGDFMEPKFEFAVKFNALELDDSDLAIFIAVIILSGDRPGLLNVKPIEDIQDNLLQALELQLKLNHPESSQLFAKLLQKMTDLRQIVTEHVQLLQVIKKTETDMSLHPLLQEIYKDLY
T15 sequence (P37231 231-505 M392A): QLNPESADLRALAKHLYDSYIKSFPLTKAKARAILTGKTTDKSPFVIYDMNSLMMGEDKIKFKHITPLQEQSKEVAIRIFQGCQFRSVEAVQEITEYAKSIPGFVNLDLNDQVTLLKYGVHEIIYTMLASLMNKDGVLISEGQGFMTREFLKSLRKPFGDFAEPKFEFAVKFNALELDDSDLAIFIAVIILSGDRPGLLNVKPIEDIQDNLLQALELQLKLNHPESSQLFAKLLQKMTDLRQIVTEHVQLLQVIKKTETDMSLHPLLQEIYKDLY
T14 sequence (P37231 231-505 H477A): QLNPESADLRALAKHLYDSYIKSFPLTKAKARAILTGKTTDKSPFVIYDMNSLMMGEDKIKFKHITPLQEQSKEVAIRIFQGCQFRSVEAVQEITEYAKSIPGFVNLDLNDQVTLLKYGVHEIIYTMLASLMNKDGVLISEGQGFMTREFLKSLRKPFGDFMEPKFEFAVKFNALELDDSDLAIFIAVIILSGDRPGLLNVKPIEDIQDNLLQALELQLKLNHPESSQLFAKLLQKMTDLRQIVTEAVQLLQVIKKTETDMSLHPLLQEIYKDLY
T11 sequence (P37231 231-505 D503R): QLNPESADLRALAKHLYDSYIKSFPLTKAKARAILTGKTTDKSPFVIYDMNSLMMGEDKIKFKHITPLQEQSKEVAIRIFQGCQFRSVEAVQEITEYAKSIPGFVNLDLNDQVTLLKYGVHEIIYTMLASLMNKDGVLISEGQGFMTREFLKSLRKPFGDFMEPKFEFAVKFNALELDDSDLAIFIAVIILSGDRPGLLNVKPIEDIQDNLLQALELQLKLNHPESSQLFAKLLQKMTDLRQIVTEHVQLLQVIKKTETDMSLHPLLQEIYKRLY
T10 sequence (P37231 231-505 N340A): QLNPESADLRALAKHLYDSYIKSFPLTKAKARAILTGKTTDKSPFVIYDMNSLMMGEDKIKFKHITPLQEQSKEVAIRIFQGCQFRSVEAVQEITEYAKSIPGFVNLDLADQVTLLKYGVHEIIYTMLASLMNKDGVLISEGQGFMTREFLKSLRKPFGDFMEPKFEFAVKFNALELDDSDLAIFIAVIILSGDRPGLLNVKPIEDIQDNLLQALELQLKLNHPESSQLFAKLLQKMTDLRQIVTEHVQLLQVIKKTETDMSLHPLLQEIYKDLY
T8 sequence (P37231 231-505 K395A): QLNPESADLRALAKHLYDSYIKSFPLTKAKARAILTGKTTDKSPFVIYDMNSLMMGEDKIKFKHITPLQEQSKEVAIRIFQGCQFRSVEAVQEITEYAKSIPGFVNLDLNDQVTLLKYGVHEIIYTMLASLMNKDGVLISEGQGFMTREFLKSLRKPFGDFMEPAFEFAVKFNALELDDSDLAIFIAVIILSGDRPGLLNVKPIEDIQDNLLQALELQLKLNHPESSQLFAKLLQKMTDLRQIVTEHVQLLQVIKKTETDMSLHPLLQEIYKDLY

Kd [1]: 525 nM
Kd [2]: 1200 nM
Kd [3]: 822 nM
Kd [4]: 867 nM
Kd [5]: 2420 nM
Kd [6]: 621 nM
Kd [7]: 621 nM
Kd [8]: 1080 nM
Kd [9]: 348 nM
Kd [10]: 1410 nM
Kd [11]: 522 nM
Kd [12]: 807 nM
Kd [13]: 590 nM
Kd [14]: 1490 nM
Kd [15]: 38700 nM
Kd [16]: 2580 nM
Kd [17]: 766 nM
Kd [18]: 4930 nM
SMILES: CC[C@H](C)[C@H](NC(=O)[C@H](CC(=O)O)NC(=O)[C@H](CCC(=O)O)NC(=O)[C@H](CC(C)C)NC(=O)CNC(=O)[C@H](CC(C)C)NC(=O)[C@H](CC(N)=O)NC(=O)[C@H](CO)NC(=O)[C@H](C)NC(=O)[C@@H]1CCCN1C(=O)[C@H](CC(=O)O)NC(=O)CCCCCNC(=S)Nc1ccc2c(c1)C(=O)OC21c2ccc(O)cc2Oc2cc(O)ccc21)C(=O)N[C@H](C(=O)N[C@@H](CCCNC(=N)N)C(=O)N[C@@H](CCCCN)C(=O)N[C@@H](C)C(=O)N[C@@H](CC(C)C)C(=O)N[C@@H](CCSC)C(=O)NCC(=O)N[C@@H](CO)C(=O)N[C@@H](Cc1ccccc1)C(=O)N[C@@H](CC(=O)O)C(=O)N[C@@H](CC(=O)O)C(=O)N[C@@H](CCCCN)C(N)=O)[C@@H](C)CC [NCoR-D2]
